Source: US9387170B2, “Drug having regulatory cell ligand contained in liposome” (RIKEN, priority 2004, dated 2016)

Key:
[1] = test system: spleen CD11c+ DC; assay: In vitro activity of ligand-containing liposome for dendritic cells: cytokine production; type: cell-based, BALB/c or C57BL/6 mouse; conditions: liposome composition 1 μg/mL, 48 hours, ELISA
Protocol: Collagenase D (1 mg/mL, Roche) was injected into spleen from BALB/c or C57BL/6 mouse, which was then incubated in a CO2 incubator for 45 minutes. Subsequently, cells were collected from the spleen, suspended in 3 mL of HistoDenz (14.1%, SIGMA), and then X-VIVO 15 (Takara Bio) containing 50 μM 2-mercaptoethanol (2ME) was overlaid thereon. After centrifuging at 1,500 rpm for 5 minutes, the cells in an intermediate layer were collected and incubated in X-VIVO 15 medium containing 50 μM 2ME, 0.5% fetal calf serum and 20 ng/mL rmGM-CSF (Pharmingen) in the CO2 incubator for one and a half hours. After pipetting gently, the suspended cells were removed, the X-VIVO 15 medium containing 50 μM 2ME, 0.5% fetal calf serum and 20 ng/mL rmGM-CSF (Pharmingen) was added, and the cells were incubated in the CO2 incubator for 18 hours. The suspended cells were collected, and the cells bound to anti-CD11c antibody-magnetic microbeads (Miltenyi) were collected to render spleen CD11c^+ DC. The CD11c^+ DC at 1×10^4 cells were suspended in 200 μL of RPMI medium containing 10% fetal calf serum in a 96-well round bottom microtiter plate, the liposome composition at a final concentration of 1 μg/mL was added thereto, and the plate was incubated in the incubator containing 5% CO^2 at 37° C. After 48 hours, culture supernatants were collected, and levels of IFN-α, IL-10 and IL-12 were measured by ELISA (FIGS. 1 and 2). The levels of IL-10 and IFN-α were high whereas the levels of IL-12 were low in Lipo-β and Lipo-Imq groups. Conversely, in Lipo-β-CpG and Lipo-Imq-CpG groups, the levels of IL-10 and IFNα were low whereas the levels of IL-12 were high. […] In the same evaluation method, the production levels of IL-10 in CD11c^+ DC by Lipo-Imq-βGC were measured.

[2] = test system: immunopotentiation and anti-tumor effects; conditions: cited from earlier work
[3] = test system: spleen whole cells; assay: Cytokine production by Lipo-αGC in spleen whole cells; type: cell-based, C57BL/6 mouse
Protocol: (§1) Spleen whole cells at 2×10^5 from C57BL/6 mouse were suspended in 200 μL of 10% fetal calf serum (FCS)-containing RPMI medium to which 100 ng/mL Lipo-(−), Lipo-αGC or α-galactosyl ceramide aqueous solution (α-GalCer) had been added, then the cell suspension was added to a 96-well U bottom culture plate, and cultured in the incubator containing 5% CO2 at 37° C. for 2 days. The levels of IFN-γ, IL-4 and IL-10 produced in the culture supernatant were measured by ELISA (FIG. 7 upper panels). The levels of IFN-γ and IL-4 were equivalent in Lipo-αGC group and αGalCer group, but the level of IL-10 in the Lipo-α group was 5 times higher than that in the α-GalCer group. When the same experiments were performed in the presence of anti-CD1d neutralization antibody (1B1, BD Bioscience PharMingen) at a final concentration of 10 μg/mL or using spleen whole cells from Vα14-NKT cell-deficient mouse (C57BL/6 background), IFN-γ, IL-4 and IL-10 in the culture supernatant were not detected (FIG. 7, lower panels).

[4] = test system: type I diabetes model; conditions: administered to NOD mice; cited from earlier work
[5] = test system: spleen whole cells from Vα14-NKT cell-deficient mouse; assay: Cytokine production in spleen whole cells from Vα14-NKT cell-deficient mouse; type: cell-based, Vα14-NKT cell-deficient mouse (C57BL/6 background); conditions: 100 ng/mL, 2 days
Protocol: as §1

[6] = test system: IgE antibody production; conditions: same experiment, mice deleting the Vα14-NKT cells; cited from earlier work
[7] = test system: antibody production; assay: In vivo antibody production system using IL-10-deficient mice; design: species or system IL-10-deficient mice with C57BL/6 background; conditions: 2 μg/mouse intraperitoneal 3 days before immunization, day 14
Protocol: Saline, α-GalCer, Lipo-(−) or Lipo-αGC (2 μg/mouse) was intraperitoneally administered in C57BL/6 mice (5 mice/group), after 3 days, which were primarily immunized with DNP-OVA and alum. On the 14th day after the primary immunization, the blood was collected from the orbital venous plexus, and antibody titers of ant-DNP-IgG1, anti-DNP-IgE and anti-DNP-IgG2a in the plasma were measured by ELISA. […] The same experiment was performed using the IL-10-deficient mice with C57BL/6 background.

[8] = test system: antibody production; assay: In vivo antibody production system using BDF1 mice; conditions: 2 μg/mouse intraperitoneal, days 0, 14, 55 and 64
Protocol: Saline, α-GalCer, Lipo-(−) or Lipo-αGC (2 μg/mouse) was intraperitoneally administered in BDF1 mice (C57BL/6×DBA/2F1) (5 mice/group), after 3 days (day 0), which were primarily immunized with DNP-OVA and alum, and further the mice was boosted with DNP-OVA alone on the 55th day (day 55) after the primary immunization. On days 0, 14, 55 and 64, the blood was collected from the orbital venous plexus, and antibody titers of ant-DNP-IgE, anti-DNP-IgG1, anti-DNP-IgG2a, and the levels of total IgE, total IgG1 and total IgG2a in the plasma were measured by ELISA.

[9] = test system: IgE antibody production; conditions: administered to C57BL/6 mice; cited from earlier work
[10] = test system: NKT cells; conditions: cited from earlier work
[11] = test system: spleen dendritic cells (CD45RB/CD11c); assay: Analysis of dendritic cells in spleen of administered mice by flow cytometry; type: in vivo, BALB/c mice; conditions: 2 μg/mouse intraperitoneal, after 3 days
Protocol: Saline, α-GalCer, Lipo-(−) or Lipo-αGC (2 μg/mouse) was intraperitoneally administered in BALB/c mice, and after 3 days, the spleen was removed. Collagenase D (1 mg/mL, Roche) was injected into the spleen, which was then incubated in the CO2 incubator for 45 minutes. Subsequently, cells were collected from the spleen, suspended in 3 mL of HistoDenz (14.1%, SIGMA-Aldrich), and then the X-VIVO 15 medium (CAMBREX Bio Science Walkerville, Inc.) containing 50 μM 2-mercaptoethanol (2ME) was overlaid thereon. After centrifuging at 1,500 rpm for 5 minutes, the cells in the intermediate layer were collected. The cells were washed with the X-VIVO 15 medium containing 50 μm 2ME and 10% FCS, and suspended in phosphate buffered saline (PBS) containing 0.5% FCS. Biotinylated anti-CD3, -CD11b, -CD19, -CD49b, -Gr-1, -TER-119 and -B220 antibodies (all from BD Bioscience Pharmingen) were added to the cell suspension. The cells were incubated at 10° C. for 20 minutes, then washed once with PBS containing 0.5% FCS, and subsequently streptoavidin (SA)-conjugated magnetic beads (Miltenyi) were added thereto. […] The resulting cells were stained with PE-labeled anti-CD11c antibody (BD Bioscience Pharmingen) and APC-labeled anti-CD45RB antibody (BD Bioscience Pharmingen), and analyzed by flow cytometry. […]

[12] = test system: spleen CD4+ T cells; assay: T cell activation ability using BDF1 mice (MTT proliferation of spleen CD4+ T cells); type: cell-based; conditions: 2 μg/mouse intraperitoneal, all DNP-OVA concentrations examined, 48 hours
Protocol: Saline, α-GalCer, Lipo-(−) or Lipo-αGC (2 μg/mouse) was intraperitoneally administered in BDF1 mice, after 3 days, which were primarily immunized with DNP-OVA and alum. After 7 days, the spleen was removed, and CD4^+ T cells were prepared using magnetic microbeads (Miltenyi). Subsequently, antigen presenting cells were prepared by irradiating spleen whole cells from the normal BDF1 mouse with radiation of 20 Gy. The CD4^+ T cells at 2×10^5 and the antigen presenting cells at 2×10^5 pulsed with DNP-OVA suspended in 200 μL of the medium were placed in one well of the 96-well U bottom culture plate, and cultured in the incubator containing 5% CO2 at 37° C. After 48 hours, cell proliferation was assayed by MTT method (Promega #G4000).

[13] = test system: IgE; conditions: patients with atopic asthma; cited from earlier work
Chain of IgE (P01854 1-425 limits assumed): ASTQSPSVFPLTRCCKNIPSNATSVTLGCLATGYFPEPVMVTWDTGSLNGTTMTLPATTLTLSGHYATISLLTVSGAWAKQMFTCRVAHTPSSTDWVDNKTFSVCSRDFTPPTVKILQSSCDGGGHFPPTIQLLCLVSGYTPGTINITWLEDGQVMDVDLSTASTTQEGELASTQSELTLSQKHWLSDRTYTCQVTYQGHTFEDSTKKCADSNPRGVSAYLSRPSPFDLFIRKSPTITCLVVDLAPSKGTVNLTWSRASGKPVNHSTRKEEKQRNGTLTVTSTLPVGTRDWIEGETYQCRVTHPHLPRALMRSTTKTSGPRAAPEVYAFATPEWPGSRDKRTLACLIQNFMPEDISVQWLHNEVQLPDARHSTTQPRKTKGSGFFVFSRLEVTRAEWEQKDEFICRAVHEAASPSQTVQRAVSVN

[14] = in the presence of anti-CD1d neutralization antibody 10 μg/mL

In the case of ceramide β-D-galactoside [β-GalCer], the “level of IFN-α in culture supernatant” value [1] is reported as “not detected or was very low”, the “level of IL-10 in culture supernatant” value [1] is reported as “not detected or was very low” and the “level of IL-12 in culture supernatant” value [1] is reported as “not detected or was very low”. The “activity compared with immunopotentiation and anti-tumor effects of α-galactosyl ceramide compound” value [2] was “much lower activity”.

In the case of β-glycosyl ceramide, the “activity compared with immunopotentiation and anti-tumor effects of α-galactosyl ceramide compound” value [2] is listed as “much lower activity”.

In the case of `CCCCCCCCCCCCCCCCCCCCCCCCCC(=O)N[C@@H](CO[C@H]1O[C@H](CO)[C@H](O)[C@H](O)[C@H]1O)[C@H](O)[C@H](O)CCCCCCCCCCCCCC` [α-GalCer, α-Galactosyl ceramide], the “level of IFN-γ in culture supernatant, Lipo-αGC group versus αGalCer group” value ([3]; 100 ng/mL, 2 days, ELISA) is reported as “equivalent”, the “level of IL-4 in culture supernatant, Lipo-αGC group versus αGalCer group” value ([3]; 100 ng/mL, 2 days, ELISA) is reported as “equivalent” and the “IFN-γ in the culture supernatant” value [3, 14] is reported as “not detected”. The “IL-4 in the culture supernatant” value [3, 14] was “not detected”, the “IL-10 in the culture supernatant” value [3, 14] was “not detected” and the “symptoms in type I diabetes model” value [4] was “symptomatic improvement was observed”. For the same compound, the “IFN-γ in the culture supernatant” value [5] was “not detected”, the “IL-4 in the culture supernatant” value [5] was “not detected” and the “IL-10 in the culture supernatant” value [5] was “not detected”. For the same compound, the “production of IgE antibody” value [6] was “not inhibited”, the “inhibitory effect on the antibody production” value [7] was “no inhibitory effect” and the “changes of total IgG1, Lipo-αGC group versus α-GalCer or Lipo-(−) group” value [8] was “nearly equivalent”. For the same compound, the “changes of total IgG2a, Lipo-αGC group versus α-GalCer or Lipo-(−) group” value [8] was “nearly equivalent”, the “production of IgE antibody induced by DNP-OVA and alum” value [9] was “inhibited” and the “cytokine production of both IFN-γ and IL-4” value [10] was “induces”. For the same compound, the “number of CD45RBlowCD11chigh cells in the spleen” value [11] was “more than in the mouse administered with Lipo-αGC”, the “ratio of CD45RBhighCD11clow cells versus ratio of CD45RBlowCD11chigh cells” value [11] was “reversed” and the “proliferation of CD4+ T cells in response to DNP-OVA” value [12] was “highly proliferated”.

In the case of “rhuMAb-E25: humanized anti-IgE antibody (Genentech Inc.)”, the “effectiveness in clinical trials” value [13] is listed as “highly effective”.
